The source of these data is patent US9216968B2, “Heterocyclic derivative and pharmaceutical drug” (NIPPON SHINYAKU CO., LTD., priority 2011, dated 2015).

Structures can show the parent of a compound that is named as a salt.

For experiment [1], the target named is human mPGES-1 (Homo sapiens (Human), UniProt O14684). As to the kind of experiment: mPGES-1 inhibiting activity (microsome fractions, PGE2 by HTRF). The format is biochemical. The settings on record: microsomes from CHO-K1 cells transfected with human mPGES-1; PGH2 1 μM, 4° C., 60 seconds; read-out: mPGES-1 Inhibition IC50. Summed up:
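PGE2 formation read by HTRF after 60 s at 4 °C with 1 μM PGH2 substrate, following 20 min compound preincubation (1% DMSO) with human mPGES-1 microsomes from transfected CHO-K1 cells. Buffer: potassium phosphate, reduced glutathione, pH 7.4; IC50 from activity relative to enzyme-free blank.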

Experiment [2] deals with A549 cells. In words: Inhibition of PGE2 production in A549 cell (IL-1β stimulated). The format is cell-based, human. The settings on record: Homo sapiens, A549, 24 h, IL-1β 5 ng/well, PGE2 in culture medium. The gist of the method:
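A549 cells preincubated 60 min with compound in RPMI/3% FBS (final DMSO 0.10), then stimulated with IL-1β (5 ng/well) for 24 h at 37 °C. PGE2 measured by HTRF and PGF2α by EIA in medium; IC50 from inhibition relative to stimulated minus unstimulated production.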

Chain of human mPGES-1 (O14684 whole entry): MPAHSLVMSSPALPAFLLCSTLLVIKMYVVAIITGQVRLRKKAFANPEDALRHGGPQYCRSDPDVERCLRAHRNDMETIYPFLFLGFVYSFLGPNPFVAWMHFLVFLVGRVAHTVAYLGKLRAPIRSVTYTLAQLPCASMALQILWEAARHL

For orientation: IC50 means the concentration at which inhibition is half-maximal. Take `Cc1c(Cl)cccc1NC(=O)c1cc(NC(=O)c2c(F)cccc2Cl)cc2[nH]c(NCCOC(C)C)nc12` [Example 194, 6-{[(2-Chloro-6-fluorophenyl)carbonyl]amino}-N-(3-chloro-2-methylphenyl)-2-{[2-(propan-2-yloxy)ethyl]amino}-1H-benzimidazole-4-carboxamide hydrochloride]: the IC50 in experiment [1] stood at 0.4 nM; in experiment [2], 33.8 nM.
Turning to `CCc1nc2c(C(=O)Nc3cccc(Cl)c3C)cc(NC(=O)c3ccccc3C(F)(F)F)cc2o1` [Example 54, N-(3-Chloro-2-methylphenyl)-2-ethyl-6-({[2-(trifluoromethyl)phenyl]carbonyl}amino)-1,3-benzoxazole-4-carboxamide], the IC50 in experiment [1] stood at 23.2 nM; in experiment [2], 225 nM.
For `COCc1nc2c(C(=O)Nc3ccc(C)cc3)cc(NC(=O)c3ccccc3C(F)(F)F)cc2[nH]1` [Example 23, 2-(Methoxymethyl)-N-(4-methylphenyl)-6-({[2-(trifluoromethyl)phenyl]carbonyl}amino)-1H-benzimidazole-4-carboxamide hydrochloride], the IC50 in experiment [1] stood at 7.2 nM; in experiment [2], 116 nM.
For the molecule `Cc1c(Cl)cccc1NC(=O)c1cc(NC(=O)c2c(F)cccc2Cl)cc2[nH]c(N[C@H](CO)C(C)C)nc12` [Example 201, 6-{[(2-Chloro-6-fluorophenyl)-carbonyl]amino}-N-(3-chloro-2-methylphenyl)-2-{[(25)-1-hydroxy-3-methylbutan-2-yl]amino}-1H-benzimidazole-4-carboxamide hydrochloride], the IC50 in experiment [1] was found to be 0.5 nM; in experiment [2], 253 nM.
In the case of `Cc1nc2c(C(=O)Nc3cccc(Cl)c3C)cc(NC(=O)c3ccccc3C(F)(F)F)cc2o1` [Example 52, N-(3-Chloro-2-methylphenyl)-2-methyl-6-({[2-(trifluoromethyl)phenyl]carbonyl}amino)-1,3-benzoxazole-4-carboxamide], the IC50 was 40.2 nM in experiment [1] and 281 nM in experiment [2].
`O=C(Nc1cc(C(=O)NCc2ccccc2C(F)(F)F)c2nc([C@H]3CCCO3)[nH]c2c1)c1ccccc1C(F)(F)F` [Example 65, 2-[(2R)-Tetrahydrofuran-2-yl]-N-[2-(trifluoromethyl)benzyl]-6-({[2-(trifluoromethyl)phenyl]carbonyl}amino)-1H-benzimidazole-4-carboxamide]: the figures for the IC50 in experiment [1] and in experiment [2] were 9.6 nM and 72.2 nM, respectively.
On to `CNC(=O)Cc1nc2c(C(=O)Nc3cccc(Cl)c3C)cc(NC(=O)c3ccccc3C(F)(F)F)cc2[nH]1` [Example 134, N-(3-Chloro-2-methylphenyl)-2-[2-(methylamino)-2-oxoethyl]-6-({[2-(trifluoromethyl)phenyl]carbonyl}amino)-1H-benzimidazole-4-carboxamide hydrochloride], for which the IC50 was found to be 10.3 nM in experiment [1] and 921 nM in experiment [2].
Take `COC1CN(c2nc3c(C(=O)Nc4cccc(Cl)c4C)cc(NC(=O)c4ccccc4C(F)(F)F)cc3[nH]2)C1` [Example 166, N-(3-Chloro-2-methylphenyl)-2-(3-methoxyazetidin-1-yl)-6-({[2-(trifluoromethyl)phenyl]carbonyl}amino)-1H-benzimidazole-4-carboxamide hydrochloride]: the results for the IC50 in experiment [1] and in experiment [2] were 3.2 nM and 29 nM, respectively.
In the case of `Cc1ccc(NC(=O)c2cc(NC(=O)c3cc(Cl)ccc3Cl)cc3[nH]c(N(C)C)nc23)cc1Cl` [Example 207, N-(3-Chloro-4-methylphenyl)-6-{[(2,5-dichlorophenyl)carbonyl]amino}-2-(dimethylamino)-1H-benzimidazole-4-carboxamide hydrochloride], the values for the IC50 in experiment [1] and in experiment [2] were 3.6 nM and 6.2 nM, respectively.
The matching figures for `CCOCCc1nc2c(C(=O)Nc3cccc(Cl)c3C)cc(NC(=O)c3ccccc3C(F)(F)F)cc2[nH]1` [Example 78, N-(3-Chloro-2-methylphenyl)-2-(2-ethoxyethyl)-6-({[2-(trifluoromethyl)phenyl]carbonyl}amino)-1H-benzimidazole-4-carboxamide hydrochloride]: 96.8 nM and 177 nM.
Take `COCC(C)(C)CNc1nc2c(C(=O)Nc3cccc(Cl)c3C)cc(NC(=O)c3ccccc3C(F)(F)F)cc2[nH]1` [Example 163, N-(3-Chloro-2-methylphenyl)-2-[(3-methoxy-2,2-dimethylpropyl)amino]-6-({[2-(trifluoromethyl)phenyl]carbonyl}amino)-1H-benzimidazole-4-carboxamide hydrochloride]: the IC50 in experiment [1] came out at 5.9 nM; in experiment [2], 23.2 nM.
Take `Cc1c(Cl)cccc1NC(=O)c1cc(NC(=O)c2ccccc2C(F)(F)F)cc2[nH]c(N3CCCCC3)nc12` [Example 142, N-(3-Chloro-2-methylphenyl)-2-(piperidin-1-yl)-6-({[2-(trifluoromethyl)phenyl]carbonyl}amino)-1H-benzimidazole-4-carboxamide hydrochloride]: the IC50 was 0.4 nM in experiment [1] and 82.7 nM in experiment [2].
Consider `Cc1c(Cl)cccc1NC(=O)c1cc(NC(=O)c2ccccc2C(F)(F)F)cc2[nH]c(CC(N)=O)nc12` [Example 44, 2-(2-Amino-2-oxoethyl)-N-(3-chloro-2-methylphenyl)-6-({[2-(trifluoromethyl)phenyl]carbonyl}amino)-1H-benzimidazole-4-carboxamide hydrochloride], for which the values for the IC50 in experiment [1] and in experiment [2] were 4.1 nM and 1100 nM, respectively.
For the molecule `Cc1c(Cl)cccc1NC(=O)c1cc(NC(=O)c2c(F)cccc2Cl)cc2[nH]c(NCCOC(C)(C)C)nc12` [Example 195, 2-[(2-tert-Butoxyethyl)amino]-6-{[(2-chloro-6-fluorophenyl)carbonyl]amino}-N-(3-chloro-2-methylphenyl)-1H-benzimidazole-4-carboxamide hydrochloride], the IC50 in experiment [1] turned out to be 2.3 nM; in experiment [2], 17.2 nM.
With `CN(C)c1nc2c(C(=O)Nc3ccc(C(C)(C)C)cc3)cc(NC(=O)c3ccccc3C(F)(F)F)cc2[nH]1` [Example 203, N-(4-tert-Butylphenyl)-2-(dimethylamino)-6-({[2-(trifluoromethyl)phenyl]carbonyl}amino)-1H-benzimidazole-4-carboxamide hydrochloride], the IC50 was 1.4 nM in experiment [1] and 5.2 nM in experiment [2].
For the molecule `COCc1nc2c(C(=O)Nc3ccc4c(c3)CCC4)cc(NC(=O)c3ccccc3C(F)(F)F)cc2[nH]1` [Example 33, N-(2,3-Dihydro-1H-inden-5-yl)-2-(methoxymethyl)-6-({[2-(trifluoromethyl)phenyl]carbonyl}amino)-1H-benzimidazole-4-carboxamide hydrochloride], the IC50 turned out to be 3 nM in experiment [1] and 33.6 nM in experiment [2].
On to `COCc1nc2c(C(=O)Nc3cccc(Cl)c3C)cc(NC(=O)c3cc(Br)ccc3Cl)cc2[nH]1` [Example 106, 6-{[(5-Bromo-2-chlorophenyl)carbonyl]amino}-N-(3-chloro-2-methylphenyl)-2-(methoxymethyl)-1H-benzimidazole-4-carboxamide hydrochloride], for which the values for the IC50 in experiment [1] and in experiment [2] were 4.5 nM and 63.8 nM, respectively.
For `COCc1nc2c(C(=O)NCc3cccc(Cl)c3C)cc(NC(=O)c3ccccc3C(F)(F)F)cc2[nH]1` [Example 39, N-(3-Chloro-2-methylbenzyl)-2-(methoxymethyl)-6-({[2-(trifluoromethyl)phenyl]carbonyl}amino)-1H-benzimidazole-4-carboxamide hydrochloride], the IC50 came to 10.4 nM in experiment [1] and 237 nM in experiment [2].
Regarding `COCc1nc2c(C(=O)Nc3ccccc3C)cc(NC(=O)c3ccccc3C(F)(F)F)cc2[nH]1` [Example 22, 2-(Methoxymethyl)-N-(2-methylphenyl)-6-({[2-(trifluoromethyl)phenyl]carbonyl}amino)-1H-benzimidazole-4-carboxamide hydrochloride], the IC50 in experiment [1] was 4.8 nM; in experiment [2] it was 104 nM.
In the case of `Cc1c(Cl)cccc1NC(=O)c1cc(NC(=O)c2ccccc2C(F)(F)F)cc2[nH]c(N3CC(O)C3)nc12` [Example 148, N-(3-Chloro-2-methylphenyl)-2-(3-hydroxyazetidin-1-yl)-6-({[2-(trifluoromethyl)phenyl]carbonyl}amino)-1H-benzimidazole-4-carboxamide hydrochloride], the results for the IC50 in experiment [1] and in experiment [2] were 1.9 nM and 324 nM, respectively.
As to `COCCCNc1nc2c(C(=O)Nc3cccc(Cl)c3C)cc(NC(=O)c3ccccc3C(F)(F)F)cc2[nH]1` [Example 174, N-(3-Chloro-2-methylphenyl)-2-[(3-methoxypropyl)amino]-6-({[2-(trifluoromethyl)phenyl]carbonyl}amino)-1H-benzimidazole-4-carboxamide hydrochloride], the IC50 came out at 2 nM in experiment [1] and 117 nM in experiment [2].
`Cc1c(Cl)cccc1NC(=O)c1cc(NC(=O)c2c(Cl)cccc2Cl)cc2[nH]c([C@H]3CCCO3)nc12` [Example 128, N-(3-Chloro-2-methylphenyl)-6-{[(2,6-dichlorophenyl)carbonyl]amino}-2-[(2R)-tetrahydrofuran-2-yl]-1H-benzimidazole-4-carboxamide hydrochloride]: the IC50 stood at 1 nM in experiment [1] and 253 nM in experiment [2].
The matching figures for `COCc1nc2c(C(=O)NCC3CCCCC3)cc(NC(=O)c3ccccc3C(F)(F)F)cc2[nH]1` [Example 218, N-(Cyclohexylmethyl)-2-(methoxymethyl)-6-({[2-(trifluoromethyl)phenyl]carbonyl}amino)-1H-benzimidazole-4-carboxamide hydrochloride]: 5.3 nM and 42.8 nM.
